Results published in ChEMBL document CHEMBL1155023, “C-geranylated chalcones from the stems of Angelica keiskei with superoxide-scavenging activity” (J Nat Prod, 2008).

test: Superoxide-scavenging activity assessed as inhibition of formation of WST1 formazan

Question: For Oc1ccc(/C=C/c2cc(O)cc(O)c2)cc1 [RESVERATROL], which IC50 is on record?
Answer: 5300 nM

Question: Which IC50 does the source give for O=C(/C=C/c1ccc(O)cc1)c1ccc(O)cc1O [ISOLIQUIRITIGENIN] here?
Answer: 15000 nM

Question: For O=C1O[C@H]([C@@H](O)CO)C(O)=C1O [ASCORBIC ACID], which IC50 is on record?
Answer: > 40000 nM

Question: Which IC50 does the source give for C/C(=C\Cc1c(O)ccc(C(=O)/C=C/c2ccc(O)cc2)c1O)C/C=C/C(C)(C)O [XANTHOKEISMINS A] here?
Answer: 510 nM

Question: With CC(C)=CCC/C(C)=C/CC/C(C)=C/CO [FARNESOL] as the compound, how does the IC50 read?
Answer: > 40000 nM

Question: Which IC50 does the source give for CC(C)(O)/C=C/CC(C)(O)[C@H]1Oc2ccc(C(=O)/C=C/c3ccc(O)cc3)c(O)c2[C@@H]1O (some centres undefined) [XANTHOKEISMINS B] here?
Answer: 690 nM

Question: With C=C(C)C(O)CC/C(C)=C/Cc1c(O)ccc(C(=O)/C=C/c2ccc(O)cc2)c1O (centres undefined) [XANTHOANGELOL B] as the compound, how does the IC50 read?
Answer: 920 nM

Question: With CC(C)=CCC/C(C)=C/Cc1c(O)ccc(C(=O)/C=C/c2ccc(O)cc2)c1O [XANTHOANGELOL] as the compound, how does the IC50 read?
Answer: > 40000 nM

Question: With C=C(C)C(O)CCC(C)(O)[C@H]1Oc2ccc(C(=O)/C=C/c3ccc(O)cc3)c(O)c2[C@@H]1O (relative stereo) [XANTHOKEISMINS C] as the compound, how does the IC50 read?
Answer: 1100 nM
